pIC50: −log10 of the molar value. Active and inactive are the calls of the source. The calls are words filed in the database; no cut-off is given here.
Tests used:
Glucocorticoid receptor [1] = target: T1, Glucocorticoid receptor (Homo sapiens, UniProt P04150); test: Binding affinity to human GR
T1 sequence (P04150 whole entry): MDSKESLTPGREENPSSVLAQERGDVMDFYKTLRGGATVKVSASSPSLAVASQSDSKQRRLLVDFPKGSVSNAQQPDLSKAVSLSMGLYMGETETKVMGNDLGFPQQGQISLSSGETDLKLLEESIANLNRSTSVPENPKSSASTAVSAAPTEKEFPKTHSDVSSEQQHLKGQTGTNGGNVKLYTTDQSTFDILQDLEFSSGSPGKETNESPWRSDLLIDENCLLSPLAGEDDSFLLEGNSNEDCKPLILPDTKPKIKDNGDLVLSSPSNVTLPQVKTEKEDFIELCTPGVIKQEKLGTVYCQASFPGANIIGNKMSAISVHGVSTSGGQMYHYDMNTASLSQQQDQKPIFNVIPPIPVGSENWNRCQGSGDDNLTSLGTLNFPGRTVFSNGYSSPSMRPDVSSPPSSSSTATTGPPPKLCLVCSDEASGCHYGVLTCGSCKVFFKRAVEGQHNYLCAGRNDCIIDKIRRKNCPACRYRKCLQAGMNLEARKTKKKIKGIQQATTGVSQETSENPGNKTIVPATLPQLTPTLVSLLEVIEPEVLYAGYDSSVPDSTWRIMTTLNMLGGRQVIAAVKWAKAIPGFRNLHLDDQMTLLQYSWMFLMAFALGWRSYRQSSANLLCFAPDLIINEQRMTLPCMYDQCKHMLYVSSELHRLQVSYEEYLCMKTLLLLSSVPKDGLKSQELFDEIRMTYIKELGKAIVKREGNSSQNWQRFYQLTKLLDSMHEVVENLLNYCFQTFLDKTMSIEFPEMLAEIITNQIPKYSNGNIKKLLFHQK

Progesterone receptor = target: T2, Progesterone receptor (Homo sapiens, UniProt P06401); test: Binding affinity to human PR
T2 sequence (P06401 whole entry): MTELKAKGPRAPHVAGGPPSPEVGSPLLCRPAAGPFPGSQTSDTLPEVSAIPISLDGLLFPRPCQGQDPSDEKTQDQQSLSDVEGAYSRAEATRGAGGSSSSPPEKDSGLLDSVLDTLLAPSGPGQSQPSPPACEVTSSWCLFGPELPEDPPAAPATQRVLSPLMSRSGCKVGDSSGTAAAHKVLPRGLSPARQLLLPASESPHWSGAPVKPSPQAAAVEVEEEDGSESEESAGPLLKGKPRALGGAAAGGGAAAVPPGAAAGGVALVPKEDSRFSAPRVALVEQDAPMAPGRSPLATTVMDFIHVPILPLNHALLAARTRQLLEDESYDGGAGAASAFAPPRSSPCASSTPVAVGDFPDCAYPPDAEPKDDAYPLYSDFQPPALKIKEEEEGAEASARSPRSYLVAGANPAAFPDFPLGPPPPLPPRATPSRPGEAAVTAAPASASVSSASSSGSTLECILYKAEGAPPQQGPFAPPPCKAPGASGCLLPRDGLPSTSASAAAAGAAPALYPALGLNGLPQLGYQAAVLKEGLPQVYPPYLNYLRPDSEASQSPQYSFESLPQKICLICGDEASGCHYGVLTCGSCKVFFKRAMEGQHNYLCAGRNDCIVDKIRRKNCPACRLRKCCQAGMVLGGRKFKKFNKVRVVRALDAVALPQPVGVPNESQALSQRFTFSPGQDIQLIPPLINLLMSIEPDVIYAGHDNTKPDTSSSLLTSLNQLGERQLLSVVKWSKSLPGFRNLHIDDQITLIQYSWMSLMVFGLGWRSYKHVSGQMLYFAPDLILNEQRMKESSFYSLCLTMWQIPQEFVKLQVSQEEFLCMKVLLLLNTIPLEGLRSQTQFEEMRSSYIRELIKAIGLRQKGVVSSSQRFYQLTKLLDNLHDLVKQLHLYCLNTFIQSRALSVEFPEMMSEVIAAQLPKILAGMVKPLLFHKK

Estrogen receptor = Estrogen receptor (Homo sapiens, UniProt Q92731+P03372); test: Binding affinity to human ER; assay type: protein assay
[2] = target: T3, Mineralocorticoid receptor (Homo sapiens, UniProt P08235); test: Binding affinity to human MR
T3 sequence (P08235 whole entry): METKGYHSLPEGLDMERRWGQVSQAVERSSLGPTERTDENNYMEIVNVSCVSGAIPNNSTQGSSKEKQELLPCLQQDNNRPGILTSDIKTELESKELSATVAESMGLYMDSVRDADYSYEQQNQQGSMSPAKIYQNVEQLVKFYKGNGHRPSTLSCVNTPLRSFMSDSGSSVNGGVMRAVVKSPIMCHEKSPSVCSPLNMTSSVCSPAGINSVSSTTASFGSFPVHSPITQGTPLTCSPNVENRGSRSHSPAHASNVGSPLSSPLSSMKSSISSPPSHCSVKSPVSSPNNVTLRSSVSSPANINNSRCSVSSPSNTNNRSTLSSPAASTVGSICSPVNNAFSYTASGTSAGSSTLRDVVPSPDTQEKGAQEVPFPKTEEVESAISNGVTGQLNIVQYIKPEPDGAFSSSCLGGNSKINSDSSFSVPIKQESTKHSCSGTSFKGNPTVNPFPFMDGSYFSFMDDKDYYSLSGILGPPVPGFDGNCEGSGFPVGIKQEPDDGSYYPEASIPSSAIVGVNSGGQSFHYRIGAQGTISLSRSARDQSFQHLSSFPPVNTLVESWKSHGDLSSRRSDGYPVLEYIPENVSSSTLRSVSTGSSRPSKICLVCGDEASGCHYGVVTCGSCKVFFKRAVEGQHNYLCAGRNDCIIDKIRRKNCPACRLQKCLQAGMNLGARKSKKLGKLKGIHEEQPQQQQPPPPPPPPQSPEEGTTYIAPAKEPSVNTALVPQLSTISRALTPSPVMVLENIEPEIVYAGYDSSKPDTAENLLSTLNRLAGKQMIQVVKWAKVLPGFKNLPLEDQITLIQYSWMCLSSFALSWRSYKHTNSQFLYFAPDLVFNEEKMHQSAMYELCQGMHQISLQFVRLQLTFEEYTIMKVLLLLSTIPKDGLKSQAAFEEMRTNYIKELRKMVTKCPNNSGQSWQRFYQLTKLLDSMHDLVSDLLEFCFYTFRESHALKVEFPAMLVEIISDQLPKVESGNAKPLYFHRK

HFF = test: Inhibition of IL1-induced IL6 production in human foreskin fibroblast; assay type: functional, cell-based
Glucocorticoid receptor [3] = target: T1, Glucocorticoid receptor; test: Inhibition of Dexamethasone induced GR transactivation of MMTV luciferase in HeLa cells; assay type: functional, cell-based

pIC50 (Glucocorticoid receptor [1]) | pIC50 (Progesterone receptor) | IC50 (Estrogen receptor) [nM] | pIC50 [2] | pIC50 (Glucocorticoid receptor [3]) | Compound | Activity (HFF)
< 5.70 | < 5.70 | – | – | – | C=CCNCC1=CC(C)(C)Nc2ccc(-c3ccccc3OC)cc21 | –
< 5.70 | < 5.70 | – | – | – | C=CCSCC1=CC(C)(C)Nc2ccc(-c3ccccc3-c3ccccc3)cc21 | –
5.99 | 5.80 | – | – | – | CCCSCC1=CC(C)(C)Nc2ccc(-c3ccccc3OC)cc21 | –
< 5.70 | < 5.70 | – | – | – | C=CCSCC1=CC(C)(C)Nc2ccc(-c3ccccc3C(F)(F)F)cc21 | –
< 5.70 | < 5.70 | – | – | – | C=CCSCC1=CC(C)(C)Nc2ccc(-c3ccccc3[N+](=O)[O-])cc21 | –
7.08 | < 5.70 | > 2000 | < 5.70 | 7.35 | COc1ccc(F)cc1-c1ccc2c(c1)C(CSCCc1ccccc1)=CC(C)(C)N2 | inactive
< 5.70 | < 5.70 | – | – | – | C=CCSCC1=CC(C)(C)Nc2ccc(-c3cc(OC)ccc3OC)cc21 | –
< 5.70 | < 5.70 | – | – | – | C=CCSCC1=CC(C)(C)Nc2ccc(-c3ccc(OC)cc3)cc21 | –
6.66 | 5.85 | > 2000 | < 5.70 | 6.59 | CC1(C)C=C(CSCCc2ccccc2)c2cc(-c3cccc(O)c3Cl)ccc2N1 | inactive
6.72 | 5.85 | – | – | – | C=CCSCC1=CC(C)(C)Nc2ccc(-c3cc(F)ccc3OC)cc21 | –
< 5.70 | < 5.70 | – | – | – | C=CCSCC1=CC(C)(C)Nc2ccc(-c3ccccc3)cc21 | –
6.15 | < 5.70 | – | – | – | COc1ccccc1-c1ccc2c(c1)C(CSCCC(C)C)=CC(C)(C)N2 | –
6.52 | < 5.70 | – | – | – | CCC(C)CSCC1=CC(C)(C)Nc2ccc(-c3ccccc3OC)cc21 (centres undefined) | –
< 5.70 | < 5.70 | – | – | – | CNC(=O)CSCC1=CC(C)(C)Nc2ccc(-c3ccccc3OC)cc21 | –
< 5.70 | < 5.70 | – | – | – | C=CCOCC1=CC(C)(C)Nc2ccc(-c3ccccc3OC)cc21 | –
6.71 | < 5.70 | – | – | – | COc1ccccc1-c1ccc2c(c1)C(CSCCc1ccccc1)=CC(C)(C)N2 | –
6.89 | 6.02 | – | – | – | C=CCSCC1=CC(C)(C)Nc2ccc(-c3cccc(O)c3Cl)cc21 | –

Second part, the compound before the results:

Compound | pIC50 (Glucocorticoid receptor [1]) | pIC50 (Progesterone receptor) | IC50 (Estrogen receptor) [nM] | pIC50 [2] | pIC50 (Glucocorticoid receptor [3]) | Activity (HFF)
COc1ccccc1-c1ccc2c(c1)C(CSc1ccc(Cl)cc1)=CC(C)(C)N2 | 6.10 | < 5.70 | – | – | – | –
C=CCSCC1=CC(C)(C)Nc2ccc(-c3cccc(OC)c3OC)cc21 | < 5.70 | < 5.70 | – | – | – | –
COc1ccccc1-c1ccc2c(c1)C(CSC(C)=O)=CC(C)(C)N2 | < 5.70 | 6.21 | – | – | – | –
C=CCSCC1=CC(C)(C)Nc2ccc(-c3ccccc3OCC)cc21 | < 5.70 | < 5.70 | – | – | – | –
COc1ccccc1-c1ccc2c(c1)C(CSC1CCCCC1)=CC(C)(C)N2 | 6.43 | < 5.70 | – | – | – | –
C=CCSCC1=CC(C)(C)Nc2ccc(-c3ccccc3C)cc21 | < 5.70 | < 5.70 | – | – | – | –
C=CCSCC1=CC(C)(C)Nc2ccc(-c3cccc(OCC)c3)cc21 | < 5.70 | < 5.70 | – | – | – | –
COc1ccccc1-c1ccc2c(c1)C(CSCc1ccccc1)=CC(C)(C)N2 | < 5.70 | 6.18 | – | – | – | –
C=CCSCC1=CC(C)(C)Nc2ccc(-c3cccc(OC)c3)cc21 | 6.00 | 6.34 | – | – | – | –
COc1ccccc1-c1ccc2c(c1)C(CSc1ccccc1)=CC(C)(C)N2 | 6.09 | < 5.70 | – | – | – | –
C=CCSCC1=CC(C)(C)Nc2ccc(-c3c(OC)cccc3OC)cc21 | < 5.70 | < 5.70 | – | – | – | –
COc1ccccc1-c1ccc2c(c1)C(CSC1CCCC1)=CC(C)(C)N2 | 6.26 | < 5.70 | – | – | – | –
C=CCSCC1=CC(C)(C)Nc2ccc(-c3ccccc3F)cc21 | < 5.70 | 6.44 | – | – | – | –
C=CCSCC1=CC(C)(C)Nc2ccc(-c3ccccc3OC)cc21 | 6.44 | 6.34 | – | – | – | –
COc1ccccc1-c1ccc2c(c1)C(C)=CC(C)(C)N2 | < 5.70 | < 5.70 | – | – | – | –
COC(=O)CSCC1=CC(C)(C)Nc2ccc(-c3ccccc3OC)cc21 | < 5.70 | < 5.70 | – | – | – | –

Source: ChEMBL document CHEMBL1139667, “Discovery and SAR study of novel dihydroquinoline containing glucocorticoid receptor ligands” (Bioorg Med Chem Lett, 2006)
